What was measured:
[1] = tested on: Rhipicephalus sanguineus or Haemaphysalis elliptica ticks; experiment: Dog - efficacy against ticks; type: in vivo; settings: for therapeutic efficacy against ticks (active = efficacy ≥80 percent): D2
Description: (§1) Beagle dogs were infested (whole body) with 80 Ctenocephalides felis fleas and 50 Rhipicephalus sanguineus or Haemaphysalis elliptica ticks (sex ratio 1:1) two days before the treatment day (Day 0), and repeatedly thereafter. Dogs of treatment groups were treated with 10 mg/kg bodyweight of a test compound orally (compound weighed in gelatin capsule), topically (spot-on, DMA 92%/DEET 8%) or subcutaneously (PEG 200 90%/water for injection 10%). Dogs of the negative control group received only an empty gelatin capsule orally and the spot-on formulation excipients topically.
(§2) Compounds with efficacy ≥80 percent were found active.

[2] = tested on: Fly larvae I (Lucilia cuprina); experiment: Fly larvae contact/feeding assay; settings: 48 h, read-out: Inhibition of fly larvae development
Description: Fly larvae I (Lucilia cuprina) were grown in medium spiked with declining concentrations of a test compound (dissolved in a DMSO-emulsifier-deionized water mixture). Inhibition of fly larvae development (%) was assessed after approximately 48 hours of continuous exposure. The vitality of used parasites was confirmed in negative control groups (i.e., an untreated control and a solvent control).

[3] = tested on: Adult fleas (Ctenocephalides felis); experiment: Flea feeding assay; settings: 48 h, read-out: flea inhibition (% of dead+damaged fleas)
Description: Adult fleas (Ctenocephalides felis) of defined age were fed on artificial membranes with blood spiked with declining concentrations of a test compound (dissolved in a DMSO-emulsifier-blood mixture). After approximately 48 hours of continuous feeding, flea inhibition (i.e., % of dead+damaged fleas per test concentration) was assessed. The vitality of used parasites was confirmed in negative control groups (i.e., an untreated control and a solvent control).

[4] = tested on: Copepodids (juvenile sea lice stage of Lepeophtheirus salmonis); experiment: Juvenile sea lice contact assay; settings: Lepeophtheirus salmonis, 24 h, read-out: Sea lice inhibition (% of dead+damaged copepodids)
Description: Copepodids (juvenile sea lice stage of Lepeophtheirus salmonis) were exposed to seawater spiked with declining concentrations of a test compound (dissolved in a DMSO sea-water mixture). Sea lice inhibition (% of dead+damaged copepodids) was assessed after approximately 24 hours of continuous exposure. The vitality of used parasites was confirmed in a negative (solvent) control group.

Rhipicephalus microplus = experiment: Cattle - efficacy against one-host tick; type: in vivo
Method in brief: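 Cattle infested whole-body with up to 3000 R. microplus larvae two or three times weekly around Day 0, then given 1 mg/kg subcutaneously or topically (spray or pour-on); controls got excipients only. Engorged females dropping were counted daily; efficacy by ADEQ per WAAVP guidelines, onset/duration as first/last day ≥80%.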

[5] = tested on: Rhipicephalus microplus tick larvae; experiment: Tick larvae contact assay; settings: read-out: Tick inhibition (% of damage+dead ticks)
Description: Tick larvae (Rhipicephalus microplus) were immersed for approximately 3 minutes in declining concentrations of a test compound (dissolved in a DMSO-emulsifier-deionized water mixture). Tick inhibition (% of damage+dead ticks per test concentration) was assessed approximately 24 hours after contact exposure. The vitality of used parasites was confirmed in negative control groups (i.e. an untreated control and a solvent control).

[6] = tested on: bed bugs (Cimex lectularius); experiment: Guinea pig - efficacy against bed bug; type: in vivo; settings: for effective to control bed bugs: 5 mg/kg
Method in brief: (§3)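 Guinea pigs given 5 mg/kg test compound orally (gavage) or s.c. in 10% DMF/emulsifier plus 90% water for injection, with local co-infestations of Ornithodoros moubata juveniles and Cimex lectularius at several post-treatment times. Engorged parasites scored dead/damaged about 24 h after collection; % inhibition versus pretreatment baseline by modified Schneider-Orelli formula.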

[7] = tested on: juvenile soft ticks (Ornithodoros moubata); experiment: Guinea pig - efficacy against argaside tick; type: in vivo
Method in brief: as §3

[8] = tested on: Tick nymphs (stage III, Ornithodoros moubata); experiment: Tick feeding assay; settings: read-out: Tick inhibition (% of damaged+dead ticks at molting-assessment)
Description: Tick nymphs (stage III, Ornithodoros moubata) were fed on artificial membranes with blood spiked with declining concentrations of a test compound (dissolved in a DMSO-emulsifier-blood mixture). Fed nymphs were incubated for around 2-3 weeks to enable tick molting into the next stage. Tick inhibition (i.e, % of damaged+dead ticks at molting-assessment per test concentration) was assessed. The vitality of used parasites was confirmed in negative control groups (i.e., an untreated control and a solvent control).

[9] = tested on: Ctenocephalides felis fleas; experiment: Dog - efficacy against fleas; type: in vivo; settings: for therapeutic efficacy against fleas (active = efficacy ≥80 percent): D2
Description: as §1, §2

[10] = tested on: Mobile stages of sea lice (pre-adults, adults of Lepeophtheirus salmonis); experiment: Adult sea lice contact assay; settings: read-out: EC50 (sea lice inhibition, dead+damaged)
Description: Mobile stages of sea lice (i.e., pre-adults, adults of Lepeophtheirus salmonis) were exposed to seawater spiked with declining concentrations of a test compound (dissolved in a PEG sea-water mixture). Sea lice inhibition (% of dead+damaged sea lice) was assessed after approximately 1 and 24 hours of continuous exposure in comparison to a negative (solvent) control group.

[11] = 1 mg/kg topical (Compound 4: spray solution; others: DMA 92%/DEET 8% pour-on)
[12] = 5 mg/kg subcutaneous, after 7 days
[13] = 5 mg/kg subcutaneous, after 10 days
[14] = 5 mg/kg subcutaneous, after 14 days
[15] = 5 mg/kg subcutaneous, after 17 days

Compound: O=C(Nc1ccc(F)cc1)c1cc(NC(=O)[C@H]2[C@H](c3cc(Cl)cc(Cl)c3)C2(Cl)Cl)ccc1F (racemic) [Compound 4]
- efficacy against ticks in dogs (conclusion) ([1]; 10 mg/kg): therapeutic efficacy
- therapeutic efficacy against ticks (active = efficacy ≥80 percent) ([1]; 10 mg/kg oral): active
- therapeutic efficacy against ticks (active = efficacy ≥80 percent) ([1]; 10 mg/kg subcutaneous): active
- inhibition at 100 ppm [2]: 80%
- inhibition at 1 ppm [3]: 80%
- inhibition at 0.1 µM [4]: ≥ 80%
- duration of efficacy (last Day with efficacy ≥80 percent) (Rhipicephalus microplus; 1 mg/kg subcutaneous): 38 days
- onset of efficacy (first Day with efficacy ≥80 percent) (Rhipicephalus microplus; 1 mg/kg subcutaneous): 2 days
- duration of efficacy (last Day with efficacy ≥80 percent) (Rhipicephalus microplus; [11]): 58 days
- onset of efficacy (first Day with efficacy ≥80 percent) (Rhipicephalus microplus; [11]): 3 days
- inhibition at 25 µM [5]: ≥ 80%
- inhibition at 100 ppm [5]: 80%
- activity against bed bugs (≥80% inhibition, killed+damaged) ([6]; 5 mg/kg oral, Day 0): immediate activity
- activity against bed bugs (≥80% inhibition, killed+damaged) ([6]; 5 mg/kg oral, after 7 days): activity
- activity against bed bugs (≥80% inhibition, killed+damaged) ([6]; 5 mg/kg oral, after 10 days): activity
- activity against bed bugs (≥80% inhibition, killed+damaged) ([6]; 5 mg/kg oral, after 14 days): activity
- activity against bed bugs (≥80% inhibition, killed+damaged) ([6]; 5 mg/kg subcutaneous, Day 0): immediate activity
- activity against bed bugs (≥80% inhibition, killed+damaged) [6, 12]: activity
- activity against bed bugs (≥80% inhibition, killed+damaged) [6, 13]: activity
- activity against bed bugs (≥80% inhibition, killed+damaged) [6, 14]: activity
- activity against bed bugs (≥80% inhibition, killed+damaged) [6, 15]: activity
- effective to control bed bugs ([6]; at least until Day 10, both administration routes (oral, subcutaneous)): 100%
- effective to control bed bugs ([6]; for at least one week, both administration routes): 100%
- activity against tick nymphs (≥80% inhibition, killed+damaged) ([7]; 5 mg/kg oral, Day 0): immediate activity
- activity against tick nymphs (≥80% inhibition, killed+damaged) ([7]; 5 mg/kg oral, after 7 days): activity
- activity against tick nymphs (≥80% inhibition, killed+damaged) ([7]; 5 mg/kg oral, after 10 days): activity
- activity against tick nymphs (≥80% inhibition, killed+damaged) ([7]; 5 mg/kg oral, after 14 days): activity
- activity against tick nymphs (≥80% inhibition, killed+damaged) ([7]; 5 mg/kg subcutaneous, Day 0): immediate activity
- activity against tick nymphs (≥80% inhibition, killed+damaged) [7, 12]: activity
- activity against tick nymphs (≥80% inhibition, killed+damaged) [7, 13]: activity
- activity against tick nymphs (≥80% inhibition, killed+damaged) [7, 14]: activity
- activity against tick nymphs (≥80% inhibition, killed+damaged) [7, 15]: activity
- effective to control ticks ([7]; 5 mg/kg, at least until Day 10, both administration routes (oral, subcutaneous)): 100%
- effective to control ticks ([7]; 5 mg/kg, for at least one week, both administration routes): 100%
- duration of efficacy, subcutaneous compared with oral administration ([7]; 5 mg/kg, ticks and bed bugs): longer duration of efficacy
- inhibition at 1 ppm [8]: 80%
- efficacy against fleas in dogs (conclusion) ([9]; 10 mg/kg): therapeutic efficacy
- therapeutic efficacy against fleas (active = efficacy ≥80 percent) ([9]; 10 mg/kg oral): active
- therapeutic efficacy against fleas (active = efficacy ≥80 percent) ([9]; 10 mg/kg subcutaneous): active
- active against fleas up to (efficacy ≥80 percent) ([9]; 10 mg/kg subcutaneous, repeated infestations): 86 D
- EC50 [10]: 10 to 25 nM
